Test results: patent US4844894A, “Method of inhibiting the onset of septicemia and endotoxemia” (priority 1986, dated 1989)

Legend:
septicemia = assay: Nonspecific resistance to septicemia induced in mice by cecal ligation and puncture; format: in vivo, NMRI mice; details: 1 μg, ip, 24 hr prior surgery
Experimental: 14 NMRI mice were pretreated with one microgram of MPL administered by intraperitoneal injection. 24 hours later each of the mice underwent surgery wherein the cecum of each mouse was ligated and punctured to internally expose the mice to microorganisms capable of instigating the onset of septicemia. […] A second group of mice were subjected to surgery in precisely the same way without pretreatment with MPL.

E. coli 055B5 [1] = assay: Septic endotoxemia: challenge with 5 LD50's of live E. coli 055B5 in mice; format: in vivo; details: 50 ug MPL ip on days 0 and 1; challenge on day 2
Experimental: (§1) Injection of mice ip with live E. coli provides a good model of gram-negative sepsis and associated endotoxemia, since E. coli readily sheds endotoxin. In this model, a known quantity of live E. coli are injected, and the survivors are counted for an appropriate number of days. The effectiveness of a treatment is evidenced by an increase in the survivorship for a treated group.
In the experiment, 10 mice were given ip injections of 50 ug MPL on days 0 and 1. They therefore received a total of 100 ug MPL. The control group received only saline. All mice were challenged on day 2 with 5 LD50 's of E. coli 055B5 organisms, also injected ip. All control animals died, whereas all treated animals (10/10) survived.

rabbits [2] = details: Table B, refs (1), (2); cited from earlier work
rabbits [3] = details: Table B, refs (1), (3); cited from earlier work
rabbits [4] = details: Table B, ref (2); cited from earlier work
[5] = relative to parent endotoxin; cited from earlier work
Phosphorous content = format: physicochemical; details: Percent by weight
E. coli 055B5 [6] = assay: Septic endotoxemia: challenge with 30 LD50's of E. coli 055B5 in mice; format: in vivo; details: 25, 25 and 50 ug MPL ip on days 0, 1 and 2; challenge on day 2
Experimental: as §1
In a manner similar to that employed in Example 3, 10 mice were given ip injections on days 0, 1 and 2 of 25, 25 and 50 ug MPL, respectively, corresponding to a total of 100 ug MPL for each mouse. Mice in the control group received only saline. On day 2, all mice received a challenge consisting of 30 LD50 's of E. coli 055B5. This corresponds to an overwhelming challenge dose. No mice in the control group survived, while 50% animals (5/10) in the treatment group survived.

chick embryos = assay: Chick embryo 50% lethal dose assay (CELD50); format: in vivo
Experimental: A sensitive measure of endotoxin toxicity is the chick embryo 50% lethal dose assay (CELD50). In this test, chick embryos at 10 days of age are injected with varying doses of the material to be tested. […] Using the chick embryo test, a comparison was made of the toxicity of radiation-detoxified endotoxin with the parent endotoxin as well as with MPL.

[7] = test system: endotoxin (E. coli 0111:B 4); assay: Non-septic endotoxemia: endotoxin (E. coli 0111:B4) challenge ip in mice; format: in vivo; details: 100 ug MPL ip day 0
Experimental: (§2) A model for non-septic endotoxemia is to inject mice intraperitoneally (ip) with endotoxin. […] Depending on the dose, death may occur within about 72 hours. The LD50 can be determined by injecting groups of mice with different doses of endotoxin, and noting the number of survivors in each group. The protective effect of a given treatment is evidenced by an increase in the LD50 of the endotoxin challenge.
(§3) In this embodiment, mice were injected ip on day 0 with either 100 ug MPL in 0.25 ml saline (treatment group) or else saline alone (control group). On day 3, mice in both groups received an ip injection containing one of several different doses of endotoxin (E. coli 0111:B 4). There were 8 mice at each endotoxin dose level. The doses for the control group were […] endotoxin. The doses for treatment group were 0.75, 1.00, 1.25, 1.50, 2.0, and 2.5 mg endotoxin. […] The LD50 for each group was calculated using the method of Reed and Meuench (ibid.). […] Since only 2 mice dies at the highest endotoxin dose in the treatment group, the LD50 the LD50 could not be calculated for this group. It is evident, however, that it would be well above 2.5 mg, probably around 5-6 mg. This would correspond to at least a 4 to 5 fold increase in the LD50 following treatment with MPL.

[8] = test system: endotoxin from E. coli K235; assay: Non-septic endotoxemia: endotoxin from E. coli K235 challenge ip in mice; format: in vivo; details: pre-treated with 100 ug MPL
Experimental: as §2, §3
In another experiment the LD50 's for both the control and the treatment groups were successfully determined. The experimental design was essentially the same as that described above except that the endotoxin used was obtained from E. coli K235.

[9] = 120 hrs after induction of septicemia

CCCCCCCCCCCCCC(=O)OC(CCCCCCCCCCC)CC(=O)OC1C(NC(=O)CC(CCCCCCCCCCC)OC(=O)CCCCCCCCCCC)C(OCC2OC(O)C(NC(=O)CC(O)CCCCCCCCCCC)C(OC(=O)CC(O)CCCCCCCCCCC)C2O)OC(CO)C1OP(=O)(O)O (stereo not shown) [MPL, Monophosphoryl Lipid A]
effect on onset of septicemia, in words (septicemia): inhibits the onset of septicemia | % Survival (septicemia; [9]): 71% | Dead/Total (septicemia; [9]): 4/14 | treated animals survived (E. coli 055B5 [1]): 10/10 | Pyrogenicity in rabbits (difference between basic and maximal body temperature) (rabbits [2]): 0 °C | Local Shwartzman Reaction in rabbits (area of hemorrhagic lesion) (rabbits [3]): < 10 mm^2 | LD50 in rabbits (rabbits [4]): > 8,000 mcg/kg | toxicity in all of the Table B assays, in words [5]: only negligible toxicity | Phosphorous Content (Phosphorous content): 1.8% | animals survived in treatment group (E. coli 055B5 [6]): 5/10 | survival, % of animals in treatment group (E. coli 055B5 [6]): 50% | eggs killed in CELD50 test (chick embryos; at any dose, footnote to Table A): No eggs killed at any dose | CELD50 (chick embryos; chick embryos at 10 days of age, survivors at 24 hours): > 20 µg | toxicity in CELD50 assay, in words (chick embryos; text conclusion from Table A): essentially no toxicity | mice dying at the highest endotoxin dose ([7]; 2.5 mg endotoxin day 3, 8 mice per dose level): 2 mice | fold increase in LD50 of endotoxin following treatment ([7]; endotoxin ip day 3): 4 to 5 fold | LD50 of endotoxin in pre-treated mice [8]: 1.16 mg | increase (factor) in LD50 of endotoxin [8]: ~5 factor | symptoms of endotoxemia [8]: did not show any of the usual symptoms of endotoxemia
